Several values for one entry are separate records, joined by “and”; a condition that tells them apart may be missing. Identical values can stand only once. Records with an inconclusive call do not appear.
Tested on: nude mice, LX-1 lung xenograft intrarenal, tumor weight T/C
Test: NCI In Vivo Anticancer Drug Screen. Data for tumor model Human Lung LX-1 Xenograft (intrarenal inoculation) in NU/NU Swiss (nude) mice
Details: endpoint: mean tumor weight change, higher = larger tumour
Method in brief: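 Tumor-bearing mice receive test compound or vehicle; tumor size is then measured in each group. The treated value is divided by the vehicle value to give T/C.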

[1] = dose: 200.0 mg/kg/injection, schedule: Q04DX003 (sc), vehicle: Klucel (hydroxypropylcellulose) (HPC)
[2] = dose: 150.0 mg/kg/injection, schedule: Q04DX003 (sc), vehicle: saline with Tween-80
[3] = dose: 300.0 mg/kg/injection, schedule: Q04DX003 (sc), vehicle: Klucel (hydroxypropylcellulose) (HPC)
[4] = dose: 600.0 mg/kg/injection, schedule: Q04DX003 (sc), vehicle: Klucel (hydroxypropylcellulose) (HPC)
[5] = dose: 1200.0 mg/kg/injection, schedule: Q04DX003 (sc), vehicle: Klucel (hydroxypropylcellulose) (HPC)
[6] = dose: 2400.0 mg/kg/injection, schedule: Q04DX003 (sc), vehicle: Klucel (hydroxypropylcellulose) (HPC)
[7] = dose: 25.0 mg/kg/injection, schedule: Q01DX010 (sc), vehicle: dextrose
[8] = dose: 400.0 mg/kg/injection, schedule: Q01DX010 (sc), vehicle: Klucel (hydroxypropylcellulose) (HPC)
[9] = dose: 300.0 mg/kg/injection, schedule: Q04DX003 (sc), vehicle: suspension in saline
[10] = dose: 600.0 mg/kg/injection, schedule: Q04DX003 (sc), vehicle: suspension in saline
[11] = dose: 1200.0 mg/kg/injection, schedule: Q04DX003 (sc), vehicle: suspension in saline

Q: With CCNC(=O)[B-][N+](C)(C)C as the compound, how does the T/C (dose: 100.0 mg/kg/injection, schedule: Q04DX003 (sc), vehicle: Klucel (hydroxypropylcellulose) (HPC)) read?
A: Its T/C is 108 % of control.

Q: What about the T/C [1] of the same compound?
A: Its T/C is 73 % of control.

Q: What about the T/C (dose: 400.0 mg/kg/injection, schedule: Q04DX003 (sc), vehicle: Klucel (hydroxypropylcellulose) (HPC)) of the same compound?
A: The T/C was 48 % of control.

Q: For Nc1nc2c(C(=O)N3CCCC3)nnn2c2ccccc12, which T/C [2] is on record?
A: Its T/C is 55 % of control.

Q: What does the source list for NC(=O)CC(N)C(=O)O (centres undefined)?
A: T/C (dose: 800.0 mg/kg/injection, schedule: Q04DX003 (sc), vehicle: saline): 87 % of control; T/C (dose: 1600.0 mg/kg/injection, schedule: Q04DX003 (sc), vehicle: saline): 102 % of control; T/C (dose: 3200.0 mg/kg/injection, schedule: Q04DX003 (sc), vehicle: saline): 77 % of control

Q: For OCCOCCN1CCN(CCCN2c3ccccc3Sc3ccc(C(F)(F)F)cc32)CC1, which T/C (dose: 3.0 mg/kg/injection, schedule: Q01DX010 (sc), vehicle: saline) is on record?
A: The T/C was 81 % of control.

Q: What about the T/C (dose: 12.0 mg/kg/injection, schedule: Q01DX010 (sc), vehicle: saline) of the same compound?
A: The T/C was 92 % of control and 111 % of control.

Q: What about the T/C (dose: 24.0 mg/kg/injection, schedule: Q01DX010 (sc), vehicle: saline) of the same compound?
A: The T/C was 52 % of control.

Q: CC1=C(C)C(=O)O[C@@H]([C@](C)(O)[C@]2(O)CC[C@@]3(O)[C@@H]4C[C@H]5O[C@]56[C@@H](O)C=CC(=O)[C@]6(C)[C@H]4CC[C@]23C)C1 was tested. Which T/C (dose: 4.0 mg/kg/injection, schedule: Q01DX010 (sc), vehicle: saline) did it give?
A: Its T/C is 61 % of control.

Q: What about the T/C (dose: 64.0 mg/kg/injection, schedule: Q01DX010 (sc), vehicle: saline) of the same compound?
A: The T/C was 121 % of control.

Q: For Cc1cc(N(CC(C)Br)CC(C)Br)ccc1N=Nc1ccccc1C(=O)O (centres undefined), which T/C (dose: 3.13 mg/kg/injection, schedule: Q01DX010 (sc), vehicle: saline with Tween-80) is on record?
A: Its T/C is 85 % of control.

Q: And the T/C (dose: 6.25 mg/kg/injection, schedule: Q01DX010 (sc), vehicle: saline with Tween-80)?
A: Its T/C is 151 % of control.

Q: Oc1c(Cl)cc(C(c2cc(Cl)c(O)c(Cl)c2)C(c2cc(Cl)c(O)c(Cl)c2)c2cc(Cl)c(O)c(Cl)c2)cc1Cl was tested. Which T/C [3] did it give?
A: The T/C was 88 % of control.

Q: What about the T/C [4] of the same compound?
A: The T/C was 66 % of control.

Q: What about the T/C [5] of the same compound?
A: Its T/C is 55 % of control.

Q: What about the T/C [6] of the same compound?
A: The T/C was 66 % of control.

Q: CC(C)[NH-].CC(C)[NH-].O.O.[Cl][Pt+2][Cl] was tested. Which T/C (dose: 3.12 mg/kg/injection, schedule: Q01DX010 (sc), vehicle: dextrose) did it give?
A: Its T/C is 62 % of control.

Q: And the T/C (dose: 6.25 mg/kg/injection, schedule: Q01DX010 (sc), vehicle: dextrose)?
A: The T/C was 60 % of control.

Q: And the T/C (dose: 12.5 mg/kg/injection, schedule: Q01DX010 (sc), vehicle: dextrose)?
A: The T/C was 53 % of control.

Q: And the T/C [7]?
A: Its T/C is 64 % of control.

Q: With C=C(NC(=O)C(=C)NC(=O)c1csc(C2=NC3c4csc(n4)C4NC(=O)c5csc(n5)C(C(C)(O)C(C)O)NC(=O)C5CSC(=N5)/C(=C/C)NC(=O)C(C(C)O)NC(=O)c5csc(n5)C3(CC2)NC(=O)C(C)NC(=O)C(=C)NC(=O)C(C)NC(=O)C(C(C)CC)NC2C=Cc3c(C(C)O)cc(nc3C2O)C(=O)OC4C)n1)C(N)=O (centres undefined) as the compound, how does the T/C (dose: 200.0 mg/kg/injection, schedule: Q01DX010 (sc), vehicle: Klucel (hydroxypropylcellulose) (HPC)) read?
A: The T/C was 90 % of control.

Q: And the T/C [8]?
A: The T/C was 65 % of control.

Q: What about the T/C (dose: 1600.0 mg/kg/injection, schedule: Q01DX010 (sc), vehicle: Klucel (hydroxypropylcellulose) (HPC)) of the same compound?
A: Its T/C is 53 % of control.

Q: Which T/C (dose: 150.0 mg/kg/injection, schedule: Q04DX003 (ip), vehicle: DMSO) does the source give for COc1ccc(-c2cc(C(=O)Nc3cc(C(F)(F)F)cc(C(F)(F)F)c3)c3ccccc3n2)cc1 here?
A: Its T/C is 75 % of control.

Q: And the T/C (dose: 300.0 mg/kg/injection, schedule: Q04DX003 (ip), vehicle: DMSO)?
A: The T/C was 104 % of control.

Q: And the T/C (dose: 600.0 mg/kg/injection, schedule: Q04DX003 (ip), vehicle: DMSO)?
A: Its T/C is 68 % of control.

Q: How did the T/C (dose: 1.5 mg/kg/injection, schedule: Q04DX003 (sc), vehicle: Klucel (hydroxypropylcellulose) (HPC)) turn out when C[C@H](N)C(=O)N[C@@H]1[C@H]2C(=C(O)C[C@@H](O)[C@@H]2O)C(=O)O[C@]1(C)C(Cl)Cl was run?
A: The T/C was 108 % of control.

Q: And the T/C (dose: 3.0 mg/kg/injection, schedule: Q04DX003 (sc), vehicle: Klucel (hydroxypropylcellulose) (HPC))?
A: The T/C was 107 % of control.

Q: And the T/C (dose: 6.0 mg/kg/injection, schedule: Q04DX003 (sc), vehicle: Klucel (hydroxypropylcellulose) (HPC))?
A: The T/C was 81 % of control.

Q: With COc1cc(C(=O)N/N=C/c2cccc([N+](=O)[O-])c2)cc(OC)c1OC as the compound, how does the T/C [2] read?
A: The T/C was 86 % of control.

Q: What does the source list for CO[C@@H]1[C@H](O)CC[C@]2(CO2)[C@H]1[C@@]1(C)O[C@@H]1CC=C(C)C?
A: T/C (dose: 150.0 mg/kg/injection, schedule: Q04DX003 (sc), vehicle: suspension in saline): 79 % of control; T/C [9]: 90 % of control; T/C [10]: 63 % of control; T/C [11]: 63 % of control

Q: For Cc1ccc(NCC2(/N=C/c3ccccc3)OC(CO)C(O)C2O)cc1 (centres undefined), which T/C [3] is on record?
A: Its T/C is 122 % of control.

Q: And the T/C [4]?
A: Its T/C is 98 % of control.

Q: What about the T/C [5] of the same compound?
A: Its T/C is 80 % of control.

Q: What about the T/C [6] of the same compound?
A: Its T/C is 98 % of control.

Q: Cc1c2cc[n+](CCN3CCCCC3)cc2c(C)c2c1[nH]c1ccc(O)cc12 was tested. Which T/C (dose: 50.0 mg/kg/injection, schedule: Q04DX003 (sc), vehicle: suspension in saline) did it give?
A: Its T/C is 83 % of control.

Q: What about the T/C (dose: 100.0 mg/kg/injection, schedule: Q04DX003 (sc), vehicle: suspension in saline) of the same compound?
A: The T/C was 68 % of control.

Q: O=C(O[Si](Cc1ccccc1)(Cc1ccccc1)Cc1ccccc1)N(CCCl)CCCl was tested. Which T/C (dose: 100.0 mg/kg/injection, schedule: Q04DX003 (sc), vehicle: saline with Tween-80) did it give?
A: Its T/C is 53 % of control.

Q: What about the T/C (dose: 200.0 mg/kg/injection, schedule: Q04DX003 (sc), vehicle: saline with Tween-80) of the same compound?
A: The T/C was 120 % of control.

Q: Which T/C [3] does the source give for O=NN(CCCl)C(=O)Oc1cc(Cl)c(Cl)cc1Cl here?
A: The T/C was 104 % of control.

Q: What about the T/C [4] of the same compound?
A: Its T/C is 53 % of control.

Q: What about the T/C [5] of the same compound?
A: The T/C was 29 % of control.

Q: How did the T/C (dose: 5.0 mg/kg/injection, schedule: Q01DX010 (sc), vehicle: Klucel (hydroxypropylcellulose) (HPC)) turn out when c1ccc2c(NCCCCCCNc3c4ccccc4nc4ccccc34)c3ccccc3nc2c1 was run?
A: The T/C was 102 % of control.

Q: Which T/C (dose: 0.25 mg/kg/injection, schedule: Q01DX010 (sc), vehicle: saline) does the source give for CC[C@]1(O)C[C@H]2CN(CCc3c([nH]c4ccccc34)[C@@](C(=O)OC)(c3cc4c(cc3OC)N(C)[C@H]3[C@@](O)(C(=O)OC)[C@H](OC(C)=O)[C@]5(CC)C=CCN6CC[C@]43[C@@H]65)C2)C1 here?
A: The T/C was 52 % of control.

Q: What about the T/C (dose: 1.0 mg/kg/injection, schedule: Q01DX010 (sc), vehicle: saline) of the same compound?
A: The T/C was 68 % of control.

Q: And the T/C (dose: 2.0 mg/kg/injection, schedule: Q01DX010 (sc), vehicle: saline)?
A: The T/C was 28 % of control.

Q: CC(C)[NH-].CC(C)[NH-].[Cl][Pt+2][Cl] was tested. Which T/C [7] did it give?
A: Its T/C is 48 % of control.

Q: What about the T/C (dose: 50.0 mg/kg/injection, schedule: Q01DX010 (sc), vehicle: dextrose) of the same compound?
A: Its T/C is 50 % of control.

Q: And the T/C (dose: 100.0 mg/kg/injection, schedule: Q01DX010 (sc), vehicle: dextrose)?
A: Its T/C is 71 % of control.

Q: Which results are given for COc1cc2cc3cc4cc(OC)c(OC)cc4c(C)[n+]3cc2cc1OC (tested in a mixture with another compound)?
A: T/C [9]: 105 % of control; T/C [10]: 71 % of control; T/C [11]: 71 % of control; T/C (dose: 2400.0 mg/kg/injection, schedule: Q04DX003 (sc), vehicle: suspension in saline): 53 % of control

Q: With CC(=O)O[C@H]1C(=O)[C@@]2(C)[C@H]([C@H](OC(=O)c3ccccc3)[C@]3(O)C[C@H](OC(=O)[C@H](O)[C@@H](NC(=O)c4ccccc4)c4ccccc4)C(C)=C1C3(C)C)[C@]1(OC(C)=O)CO[C@@H]1C[C@@H]2O as the compound, how does the T/C (dose: 25.0 mg/kg/injection, schedule: Q01DX010 (sc), vehicle: Klucel (hydroxypropylcellulose) (HPC)) read?
A: The T/C was 40 % of control.

Q: And the T/C [8]?
A: Its T/C is 14 % of control.

Q: What does the source list for CN=C(N)N/N=C(\C)c1ccc2c(c1)Cc1ccccc1-2?
A: T/C [2]: 152 % of control; T/C (dose: 300.0 mg/kg/injection, schedule: Q04DX003 (sc), vehicle: saline with Tween-80): 117 % of control; T/C (dose: 600.0 mg/kg/injection, schedule: Q04DX003 (sc), vehicle: saline with Tween-80): 106 % of control

Q: How did the T/C [1] turn out when COCC1OC2OC3C(COC)OC(OC4C(COC)OC(OC5C(COC)OC(OC6C(COC)OC(OC7C(COC)OC(OC8C(COC)OC(OC1C(O)C2O)C(O)C8O)C(O)C7O)C(O)C6O)C(O)C5O)C(O)C4O)C(O)C3O (centres undefined) (tested in a mixture with another compound) was run?
A: The T/C was 156 % of control.

— PubChem BioAssay AID264 (DTP/NCI, 2004)
